The values below come from ChEMBL document CHEMBL3603757, “Discovery of a novel tricyclic 4H-thiazolo[5',4':4,5]pyrano[2,3-c]pyridine-2-amino scaffold and its application in a PI3Kα inhibitor with high PI3K isoform selectivity and potent cellular activity” (Bioorg Med Chem Lett, 2015).

≈ marks a conversion by molar mass, not a printed value.

For orientation: IC50 means the concentration that gives 50% inhibition. What is called bioavailability is dose-corrected exposure relative to a reference, in per cent. Higher therefore signals good availability. As usually defined, the Tmax is the time at which the peak concentration occurs. For orientation: solubility means how much of the substance goes into solution per volume. The low end stands for a poorly soluble substance, the high end for a readily soluble substance. As usually defined, the clearance is the volume of plasma or blood freed of the substance per unit of time.

The test system of series [1] is Rattus norvegicus. The experiment in a line: Dose normalized AUC in Sprague-Dawley rat at 3 mg/kg, po. It is filed as ADME, organism-based. To be noted: in vivo.
The target in series [2] is T1, Phosphatidylinositol 4,5-bisphosphate 3-kinase catalytic subunit beta isoform (Homo sapiens, UniProt P42338). The experiment in a line: Inhibition of myristoylated human P110beta expressed in Rat1 cells assessed as inhibition of Akt phosphorylation at Serine 473 by Western blot analysis. It is filed as cell-based. (In western blotting, separated proteins are transferred to a membrane and probed.)
T1 sequence (P42338 whole entry, canonical isoform): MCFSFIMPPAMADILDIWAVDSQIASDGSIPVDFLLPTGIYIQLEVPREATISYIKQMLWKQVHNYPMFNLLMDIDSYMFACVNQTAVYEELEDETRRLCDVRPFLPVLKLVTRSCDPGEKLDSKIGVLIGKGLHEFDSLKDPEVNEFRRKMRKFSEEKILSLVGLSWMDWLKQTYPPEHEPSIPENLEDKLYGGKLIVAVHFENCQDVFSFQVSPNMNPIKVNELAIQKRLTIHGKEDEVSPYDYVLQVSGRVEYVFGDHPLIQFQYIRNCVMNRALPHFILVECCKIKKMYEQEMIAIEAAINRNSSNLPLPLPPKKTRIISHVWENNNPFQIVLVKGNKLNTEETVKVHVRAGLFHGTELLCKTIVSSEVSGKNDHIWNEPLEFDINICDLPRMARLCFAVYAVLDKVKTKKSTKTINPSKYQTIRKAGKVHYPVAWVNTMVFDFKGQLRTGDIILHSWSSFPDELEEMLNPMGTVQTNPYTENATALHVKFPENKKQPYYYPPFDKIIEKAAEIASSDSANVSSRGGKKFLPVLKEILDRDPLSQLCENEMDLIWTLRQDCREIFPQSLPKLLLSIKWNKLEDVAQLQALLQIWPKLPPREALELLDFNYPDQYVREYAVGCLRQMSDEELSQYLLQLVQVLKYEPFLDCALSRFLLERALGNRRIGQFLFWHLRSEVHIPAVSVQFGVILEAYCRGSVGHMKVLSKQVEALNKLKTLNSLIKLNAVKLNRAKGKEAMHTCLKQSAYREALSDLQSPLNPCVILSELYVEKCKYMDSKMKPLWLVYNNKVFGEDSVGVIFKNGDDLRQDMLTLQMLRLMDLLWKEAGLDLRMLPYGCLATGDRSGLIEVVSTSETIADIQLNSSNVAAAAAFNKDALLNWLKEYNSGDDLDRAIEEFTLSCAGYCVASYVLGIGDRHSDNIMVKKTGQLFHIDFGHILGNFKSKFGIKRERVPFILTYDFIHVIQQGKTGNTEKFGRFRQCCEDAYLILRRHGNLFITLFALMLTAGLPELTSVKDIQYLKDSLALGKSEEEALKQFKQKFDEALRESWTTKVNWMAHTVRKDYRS

The target in series [3] is Phosphatidylinositol 4,5-bisphosphate 3-kinase catalytic subunit gamma isoform (Homo sapiens, UniProt P48736). The experiment in a line: Inhibition of P110gamma (unknown origin) using PI or PIP2:PS as substrate measured for 15 to 60 mins by TR-FRET analysis. A general note: Time-resolved FRET reads energy transfer from a long-lived donor to a nearby acceptor.
Chain of Phosphatidylinositol 4,5-bisphosphate 3-kinase catalytic subunit gamma isoform (P48736 whole entry, canonical isoform): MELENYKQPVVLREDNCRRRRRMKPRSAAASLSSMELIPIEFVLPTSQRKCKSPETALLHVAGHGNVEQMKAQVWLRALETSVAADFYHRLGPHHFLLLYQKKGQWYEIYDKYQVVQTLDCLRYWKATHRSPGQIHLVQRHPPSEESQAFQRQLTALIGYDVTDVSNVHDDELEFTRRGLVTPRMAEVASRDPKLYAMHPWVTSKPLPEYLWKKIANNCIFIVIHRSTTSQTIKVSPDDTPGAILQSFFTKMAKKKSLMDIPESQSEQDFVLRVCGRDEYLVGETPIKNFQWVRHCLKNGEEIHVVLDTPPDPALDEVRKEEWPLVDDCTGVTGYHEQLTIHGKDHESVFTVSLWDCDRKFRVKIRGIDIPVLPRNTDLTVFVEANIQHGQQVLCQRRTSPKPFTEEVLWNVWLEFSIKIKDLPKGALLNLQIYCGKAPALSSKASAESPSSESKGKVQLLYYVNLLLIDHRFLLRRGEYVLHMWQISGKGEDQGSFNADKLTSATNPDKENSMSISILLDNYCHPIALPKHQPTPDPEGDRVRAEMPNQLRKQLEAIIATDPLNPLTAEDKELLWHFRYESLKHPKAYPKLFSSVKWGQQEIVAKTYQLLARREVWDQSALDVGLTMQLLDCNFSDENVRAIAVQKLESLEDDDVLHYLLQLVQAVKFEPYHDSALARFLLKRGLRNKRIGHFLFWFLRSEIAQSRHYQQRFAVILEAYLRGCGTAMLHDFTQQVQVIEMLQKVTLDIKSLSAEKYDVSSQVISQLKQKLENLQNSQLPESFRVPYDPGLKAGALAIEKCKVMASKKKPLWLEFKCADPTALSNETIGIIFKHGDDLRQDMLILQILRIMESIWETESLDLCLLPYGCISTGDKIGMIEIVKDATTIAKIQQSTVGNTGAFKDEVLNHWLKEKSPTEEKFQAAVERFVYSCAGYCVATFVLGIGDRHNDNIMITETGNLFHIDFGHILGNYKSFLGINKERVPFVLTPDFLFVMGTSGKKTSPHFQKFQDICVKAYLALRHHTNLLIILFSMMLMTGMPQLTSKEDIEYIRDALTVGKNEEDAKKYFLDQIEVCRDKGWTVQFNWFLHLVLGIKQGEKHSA
A short description of series [4]: Volume of distribution at steady state in Sprague-Dawley rat at 1 mg/kg, iv. It is filed as ADME, organism-based. The following applies: in vivo, read-out: Vdss.
Series [5] concerns the target T2, Phosphatidylinositol 4,5-bisphosphate 3-kinase catalytic subunit delta isoform (Homo sapiens, UniProt O00329).
T2 sequence (O00329 whole entry): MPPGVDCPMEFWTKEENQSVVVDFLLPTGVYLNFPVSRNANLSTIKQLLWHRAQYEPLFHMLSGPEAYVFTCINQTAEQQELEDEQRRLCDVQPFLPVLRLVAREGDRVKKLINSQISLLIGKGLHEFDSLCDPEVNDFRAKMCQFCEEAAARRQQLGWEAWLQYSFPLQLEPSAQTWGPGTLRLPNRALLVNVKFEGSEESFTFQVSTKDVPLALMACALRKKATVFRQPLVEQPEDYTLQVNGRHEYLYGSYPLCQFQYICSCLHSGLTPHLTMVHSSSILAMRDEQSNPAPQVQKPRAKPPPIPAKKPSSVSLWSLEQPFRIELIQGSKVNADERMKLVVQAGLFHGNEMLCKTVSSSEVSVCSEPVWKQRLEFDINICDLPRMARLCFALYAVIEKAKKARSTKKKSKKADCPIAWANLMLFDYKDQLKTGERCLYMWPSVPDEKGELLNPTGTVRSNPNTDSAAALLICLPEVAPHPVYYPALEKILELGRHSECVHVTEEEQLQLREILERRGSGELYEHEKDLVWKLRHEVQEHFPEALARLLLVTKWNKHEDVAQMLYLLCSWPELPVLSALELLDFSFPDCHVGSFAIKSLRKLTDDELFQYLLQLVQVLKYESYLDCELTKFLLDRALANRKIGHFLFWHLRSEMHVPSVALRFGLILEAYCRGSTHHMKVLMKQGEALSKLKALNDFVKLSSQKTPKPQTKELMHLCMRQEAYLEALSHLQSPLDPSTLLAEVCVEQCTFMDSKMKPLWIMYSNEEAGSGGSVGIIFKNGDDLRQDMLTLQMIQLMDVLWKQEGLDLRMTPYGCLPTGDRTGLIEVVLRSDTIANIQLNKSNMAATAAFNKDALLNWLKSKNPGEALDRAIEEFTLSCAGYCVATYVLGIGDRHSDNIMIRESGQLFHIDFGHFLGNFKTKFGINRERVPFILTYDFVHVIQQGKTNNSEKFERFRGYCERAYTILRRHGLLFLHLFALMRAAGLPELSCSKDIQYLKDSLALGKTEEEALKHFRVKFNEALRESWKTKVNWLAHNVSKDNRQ
The experiment in a line: Inhibition of P110delta (unknown origin) using PI or PIP2:PS as substrate measured for 15 to 60 mins by TR-FRET analysis.

For series [6], the target named is T2, Phosphatidylinositol 4,5-bisphosphate 3-kinase catalytic subunit delta isoform. The experiment in a line: Inhibition of myristoylated human P110delta expressed in Rat1 cells assessed as inhibition of Akt phosphorylation at Serine 473 by Western blot analysis. It is filed as cell-based.
Series [7] has as its system Rattus norvegicus. The experiment in a line: Dose normalized Cmax in Sprague-Dawley rat at 3 mg/kg, po. It is filed as ADME, organism-based. The following applies: in vivo.
Series [8] is described as follows: Oral bioavailability in Sprague-Dawley rat at 3 mg/kg. It is filed as ADME, organism-based. The following applies: in vivo.
Series [9] deals with T3, Phosphatidylinositol 4,5-bisphosphate 3-kinase catalytic subunit alpha isoform (Homo sapiens, UniProt P42336). The experiment in a line: Inhibition of myristoylated human P110alpha expressed in Rat1 cells assessed as inhibition of Akt phosphorylation at Serine 473 by Western blot analysis. Format: cell-based.
T3 sequence (P42336 whole entry, canonical isoform): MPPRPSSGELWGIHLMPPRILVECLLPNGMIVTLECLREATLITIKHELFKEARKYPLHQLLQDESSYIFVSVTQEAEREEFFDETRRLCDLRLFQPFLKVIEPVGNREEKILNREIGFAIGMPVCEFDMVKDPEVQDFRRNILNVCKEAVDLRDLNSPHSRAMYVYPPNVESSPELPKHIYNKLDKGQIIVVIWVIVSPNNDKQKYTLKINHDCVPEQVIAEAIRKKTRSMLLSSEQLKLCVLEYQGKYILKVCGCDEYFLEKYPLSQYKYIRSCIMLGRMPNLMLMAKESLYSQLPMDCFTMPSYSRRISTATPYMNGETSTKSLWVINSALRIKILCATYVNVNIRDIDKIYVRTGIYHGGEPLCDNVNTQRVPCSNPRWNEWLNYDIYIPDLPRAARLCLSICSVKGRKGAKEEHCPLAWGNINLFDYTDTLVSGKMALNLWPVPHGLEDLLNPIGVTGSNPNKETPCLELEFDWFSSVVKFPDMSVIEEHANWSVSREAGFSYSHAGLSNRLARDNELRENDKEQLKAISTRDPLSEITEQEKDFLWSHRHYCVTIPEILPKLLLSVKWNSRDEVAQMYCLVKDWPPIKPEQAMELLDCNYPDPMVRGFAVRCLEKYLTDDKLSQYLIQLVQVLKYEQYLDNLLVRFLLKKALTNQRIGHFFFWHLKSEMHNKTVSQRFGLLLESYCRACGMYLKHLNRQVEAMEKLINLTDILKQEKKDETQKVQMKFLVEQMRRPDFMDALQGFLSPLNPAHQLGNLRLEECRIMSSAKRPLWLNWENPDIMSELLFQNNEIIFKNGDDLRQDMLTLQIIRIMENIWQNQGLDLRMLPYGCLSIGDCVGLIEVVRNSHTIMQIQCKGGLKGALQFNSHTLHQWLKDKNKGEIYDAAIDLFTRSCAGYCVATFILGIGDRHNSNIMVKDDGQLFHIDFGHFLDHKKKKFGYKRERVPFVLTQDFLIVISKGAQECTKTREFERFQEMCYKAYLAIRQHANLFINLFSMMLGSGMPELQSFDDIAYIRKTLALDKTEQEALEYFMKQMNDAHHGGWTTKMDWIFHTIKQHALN
Series [10] can be described thus: Tmax in Sprague-Dawley rat at 3 mg/kg, po. It is filed as ADME, organism-based. The following applies: in vivo.
Series [11] can be described thus: Solubility of the compound in water at pH 6.8. Format: physicochemical.
Series [12] addresses T1, Phosphatidylinositol 4,5-bisphosphate 3-kinase catalytic subunit beta isoform. The experiment in a line: Inhibition of P110beta (unknown origin) by Kinase-Glo assay.
The target of series [13] is T3, Phosphatidylinositol 4,5-bisphosphate 3-kinase catalytic subunit alpha isoform. The experiment in a line: Inhibition of P110alpha (unknown origin) by Kinase-Glo assay. For orientation: In Kinase-Glo more light means more ATP remaining.
The nature of series [14]: Plasma protein binding in rat. Format: ADME, cell-free. The following applies: read-out: PPB (converted).
Series [15] can be described thus: Clearance in Sprague-Dawley rat at 1 mg/kg, iv. It is filed as ADME, organism-based. To be noted: in vivo.
Series [16] is described as follows: Solubility of the compound in water at pH 4. Format: physicochemical.
Series [17] in a line: Solubility of the compound in […]. Format: physicochemical.
A short description of series [18]: Terminal half life in Sprague-Dawley rat at 1 mg/kg, iv. It is filed as ADME, organism-based. To be noted: in vivo, read-out: beta t1/2 (converted).
For series [19], the system named is Rattus norvegicus. The experiment in a line: Dose normalized AUC in Sprague-Dawley rat at 1 mg/kg, iv. Format: ADME, organism-based. To be noted: in vivo.

Regarding `C[C@@H]1CCN(C(=O)Nc2nc3c(s2)-c2cc(C(C)(C)C(F)(F)F)ncc2OC3)[C@@H]1C(N)=O`, the figures for the AUC/dose in series [1] and in series [19] were 228 nM·h and 1368 nM·h, respectively. Also, the IC50 in series [2] worked out at 1.11 µM; in [3], 0.2 µM; in series [5], 0.22 µM; in series [6], 0.54 µM; in series [9] it was 0.011 µM; in series [12], 0.67 µM. In [13], inhibition was half-maximal at 0.005 µM (IC50). Also, the Vd in [4] came out at 1.8 L/kg. In addition, the Cmax/dose in [7] is listed as 61 nM. The same compound displayed a bioavailability in series [8] of 17%. Besides, in series [10], the Tmax came to 1.2 h. In addition, the solubility in [11] worked out at 260 µM (≈ 122 µg/mL); in series [16], 450 µM (≈ 211 µg/mL); in [17] it was 410 µM (≈ 192 µg/mL). Also, in series [14], the fraction unbound was 0.033. Besides, in [15], the clearance turned out to be 27 mL/min/kg. The half-life in [18] was 1.4 h.
Turning to `Cc1nc(NC(=O)N2CC[C@@H](C)[C@H]2C(N)=O)sc1-c1ccnc(C(C)(C)C(F)(F)F)c1`, the IC50 in [2] came out at 2 µM; in series [3], 0.23 µM; in series [5], 0.39 µM; in series [6] it was 0.616 µM; in [9] it was 0.019 µM; in series [12], 1.04 µM. In series [13], this compound showed an IC50 of 0.019 µM. Besides, the values for the solubility in series [11], in [16] and in series [17] were 23 µM (≈ 10.5 µg/mL), 35 µM (≈ 15.9 µg/mL) and 31 µM (≈ 14.1 µg/mL), respectively.
